Laboratory results from ChEMBL document CHEMBL3507680, “University of Dundee, Gates Library screen for HepG2 cell viability”.

Assay: Human HepG2 cell viability assay in 384 well format
Type: toxicity, cell-based
Design: dose 125 nL, time 70.5 hour; cytotoxicity at 70.5 h: concentration not given beside the values
Conditions: HepG2 cells, read-out: Inhibition

| Compound | cytotoxicity at 70.5 h [%] |
| --- | --- |
| COCC(=O)NCCC(=O)N1CCN(S(=O)(=O)c2ccc(Br)cc2)CC1 | 13.5 |
| COCCN(C(=O)c1cnccn1)c1nc2c(s1)CCc1c-2cnn1C | 7 |
| Cc1ncsc1CN1C[C@@H](OCc2ccncc2)[C@H]2OCCC[C@H]21 | 3.55 |
| CS(=O)(=O)N1CCOCC12CCN(Cc1ccc(F)cc1)CC2 | -6.42 |
| CCC(C)(C)C(=O)Nc1ccc2ccn(CC(=O)NC)c2c1 | -0.594 |
| COCCCn1ccc(NS(=O)(=O)c2cc(C)c(F)cc2F)n1 | -15.7 |
| CC(=O)N(C)Cc1cncc(C2CCCN2C2CCOCC2)n1 (configuration not stated) | -9.86 |
| COc1cc(OC)cc(-c2noc(CC(N)c3ccccc3)n2)c1 (configuration not stated) | -5.26 |
| Cc1noc(C)c1CN(C)C(=O)NC1CCN(c2ncccn2)CC1 | 35.3 |
| COc1ccc2c(c1)c(C(=O)Nc1nnn[nH]1)cn2C | -13.5 |
| CCCNC(=O)CNc1ccc(C(=O)N2CCCCC2C)cc1C (configuration not stated) | -2.88 |
| O=C(c1ccoc1)N1CCC2(CCC(=O)N2Cc2ccncc2)CC1 | 5.56 |
| CC(C)c1cc(N2CCC(CCC(=O)NC3CC3)CC2)n2nccc2n1 | -10.7 |
| CC(C)COCCC(=O)Nc1c(-c2ccc(F)cc2)ncn1C | -2.98 |
| O=C(c1cc(-n2cnnn2)ccc1Cl)N1CCN(c2ccccc2)CC1 | -1.12 |
| CC1CCc2sc(C(=O)Nc3cnn(C)c3)cc2C1 (configuration not stated) | -2.28 |
| Fc1cccc(-c2c[nH]c([C@@H]3COCCN3C3CCOCC3)n2)c1 | -8.23 |
| COc1cccc(CN(Cc2ccco2)Cc2cnc(C)n2C)c1 | 3.46 |
| c1ccc(-c2cccc(N3CCC(NCCc4cscn4)CC3)c2)cc1 | -7.94 |

| Compound | cytotoxicity at 70.5 h [%] |
| --- | --- |
| COc1ccc(-c2noc(-c3ccc(N4CCC[C@H]4CO)nc3)n2)cc1 | 10.2 |
| Cc1nc(N2CCCCC2)ncc1-c1cc(=O)[nH]c(N2CCCC2)n1 | 2.6 |
| CCc1nnc(CNCC2CCCN2c2cccnn2)o1 (configuration not stated) | -3.72 |
| O=C(NCCNc1ccc(C(F)(F)F)cn1)c1ccc(Br)cc1F | 17.1 |
| Cc1csc(N2CCN(CC(=O)N3CCNC3=O)CC2C)n1 (configuration not stated) | 12 |
| COc1ccc(F)cc1C(=O)N1C[C@H]2C[C@H](OC)C[C@H]2C1 | -6.25 |
| CCC(=O)Nc1cccc(OCC(=O)N(C)Cc2ccon2)c1 | 8.51 |
| CC(NC(C)(C)CN)c1ccccc1 (configuration not stated) | -0.00601 |
| Cc1cc(NC(=O)COC(=O)c2ccc(F)cc2Br)n(C)n1 | -12.3 |
| Cc1cc(NC(=O)N(Cc2ccc(C#N)cc2)C(C)C)no1 | -13.2 |
| OCCCN1CCc2onc(C(c3ccccc3)c3ccccc3)c2C1 | 6.85 |
| Cc1nc(C)n(C2CCCN(C(=O)c3ccc(OC(C)C)nc3)C2)n1 (configuration not stated) | -0.207 |
| CC(C)(CO)Nc1c(NCc2ccncc2)c(=O)c1=O | -9.44 |
| CC(C)NC(=O)N[C@H]1C[C@@H](c2nc(-c3ccc(F)cc3)no2)N(C)C1 | -4.13 |
| Cn1ccc(C(=O)Nc2nnc(-c3ccccn3)[nH]2)cc1=O | -22.2 |
| Cc1ccc(CN2CC[C@H]3CO[C@H](CN(C)C)[C@H]3C2)o1 | -11.2 |
| C[C@H](C(=O)N1Cc2ccccc2CC2(CCCN2C)C1)c1ccccc1 (some centres not stated) | -5.49 |
| CC(C)N1CCC2(CCNCC2)C1=O | -13 |
| CC(NC(=O)NCCCn1cncn1)c1ccccc1F (configuration not stated) | -4.63 |

| Compound | cytotoxicity at 70.5 h [%] |
| --- | --- |
| Cc1ccn(CCNc2ncnc3c2CCN(c2cnccn2)CC3)n1 | 2.31 |
| OCC1CCCN1c1cc(NCCc2ccsc2)ncn1 (configuration not stated) | -15.1 |
| O=C(c1cc(F)ccc1O)N1CCN(C2CCOCC2)CC1 | 0.856 |
| O=C(c1ccn(-c2cccc(Cl)c2)n1)N1CCN(CCO)CC1 | 0.676 |
| Cc1c(C(=O)N2CCS(=O)(=O)CC2)nnn1-c1ccc2ncccc2c1 | -4.2 |
| CCOc1ccc(NC2CCN(CC(F)(F)F)C2=O)cc1C (configuration not stated) | -5.71 |
| COCCC1COC2(CCN(C(=O)CC3CCCC3)CC2)C1 (configuration not stated) | -3.15 |
| CCN(Cc1ccc2c(c1)OCCO2)C(=O)NC(C)Cn1ccnc1 (configuration not stated) | -12.9 |
| CC(=O)N1N=C(c2ccccc2)OC1C(=O)NCCN(C(C)C)C(C)C (configuration not stated) | -6.17 |
| CNc1cc(N2CCC(O)(CNC(=O)c3ccc(C)nc3)C2)ncn1 (configuration not stated) | -6.58 |
| CC(C)NC(=O)NC[C@H]1OC[C@@H](NCc2ccc(F)cc2)[C@@H]1O | -4.37 |
| O=C1CCC2(CCCN(C(=O)c3cnccn3)CC2)N1 (configuration not stated) | 1.43 |
| CN(C)S(=O)(=O)N1CCN(C(=O)OC(C)(C)C)CC12CCCCC2 | -6.87 |
| CN(Cc1cccnc1N)Cc1cccc2ncccc12 | -15.9 |
| O=C1N(c2ccc(Cl)cc2)Cc2nc(=O)[nH]n21 | -11.3 |
| CCC(CC)C(CNC(=O)Nc1ccc(OC)cc1)N1CCOCC1 (configuration not stated) | -12.2 |
| Cn1nc(CNc2ncccn2)c2c1CN(c1cnccn1)CC2 | -8.13 |
| CCN1C(=O)C[C@@H]2[C@@H]1CCN2S(=O)(=O)c1ccccc1 | -12.3 |
| CC(C)n1cnnc1CNC(=O)CCCOc1ccccc1Cl | -6.43 |
